Columns and labels:
[1] = organism: Bos taurus; experiment: Inhibition of purified calf kidney ALR1 at 0.6 mM preincubated for 10 mins by UV spectrophotometry; type: tissue-based
[2] = Inhibition of purified calf eye lens ALR2 preincubated for 10 mins by UV spectrophotometry; type: tissue-based, Bos taurus, Lens of camera-type eye
[3] = organism: Bos taurus; experiment: Inhibition of purified calf eye lens ALR2 at 0.6 mM preincubated for 10 mins by UV spectrophotometry; type: tissue-based; details: Lens of camera-type eye
[4] = Inhibition of purified calf kidney ALR1 preincubated for 10 mins by UV spectrophotometry; type: tissue-based, Bos taurus

Structure (SMILES) | inhibition [1] | IC50 [2] | inhibition [3] | IC50 [4]
COC(=O)/C=C1/S/C(=N\C(=O)c2cccc(C)c2)N(c2ccccc2OC)C1=O | 32.4% | 6.26 µM |  | 
COC(=O)/C=C1/S/C(=N\C(=O)c2ccc(C)cc2)N(c2cccc(Cl)c2)C1=O | 43.5% |  | 44.3% | 
COC(=O)/C=C1/S/C(=N\C(=O)c2ccccc2Br)N(c2cccc(Cl)c2Cl)C1=O | 51.4% | 9.42 µM |  | 
COC(=O)/C=C1/S/C(=N\C(=O)c2ccc([N+](=O)[O-])cc2)N(c2ccc(F)c(Cl)c2)C1=O | 38.4% |  | 47.7% | 
COC(=O)/C=C1/S/C(=N\C(=O)c2ccc3ccccc3c2)N(c2ccccc2)C1=O | 49.1% | 5.12 µM |  | 
COC(=O)/C=C1/S/C(=N\C(=O)c2ccccc2Cl)N(c2ccccc2)C1=O | 19.2% | 5.21 µM |  | 
O=C1NC(=O)[C@@]2(CCOc3ccc(F)cc32)N1 [SORBINIL] |  | 3.14 µM |  | 
COC(=O)/C=C1/S/C(=N\C(=O)c2cccc(C)c2)N(c2ccccc2)C1=O | 31.5% | 9.75 µM |  | 
COC(=O)/C=C1/S/C(=N\C(=O)c2ccccc2)N(c2cccc3ccccc23)C1=O | 44.3% | 3.19 µM |  | 
COC(=O)/C=C1/S/C(=N\C(=O)c2ccccc2Br)N(c2ccc(Cl)cc2Cl)C1=O | 72.7% | 2.54 µM |  | 
COC(=O)/C=C1/S/C(=N\C(=O)c2cccc(C)c2)N(c2cccc(Cl)c2)C1=O | 42.6% | 4.52 µM |  | 
COC(=O)/C=C1/S/C(=N\C(=O)c2ccccc2)N(c2ccccc2OC)C1=O | 41.2% | 2.82 µM |  | 
COC(=O)/C=C1/S/C(=N\C(=O)c2ccccc2C)N(c2cccc(OC)c2)C1=O | 27.8% |  | 43.8% | 
COC(=O)/C=C1/S/C(=N\C(=O)c2ccc(Cl)cc2)N(c2cccc(Cl)c2Cl)C1=O | 15.3% | 12.4 µM |  | 
CCCC(CCC)C(=O)O [VALPROIC ACID] |  |  |  | 57.4 µM
COC(=O)/C=C1/S/C(=N\C(=O)c2ccc([N+](=O)[O-])cc2)N(c2ccccc2F)C1=O | 49.5% | 36.1 µM |  | 

Reference: ChEMBL document CHEMBL3217575, “Design, synthesis and molecular modelling of novel methyl[4-oxo-2-(aroylimino)-3-(substituted phenyl)thiazolidin-5-ylidene]acetates as potent and selective aldose reductase inhibitors” (Medchemcomm, 2012)
